Reference: paper PMC9683054, “Synthesis of N-(4-chlorophenyl) substituted pyrano[2,3-c]pyrazoles enabling PKBβ/AKT2 inhibitory and in vitro anti-glioma activity” (Annals of Medicine, 2022)
pIC50: −log10 of the molar value.

Tests used:
[1] = target: T1, AKT2/PKBβ (Homo sapiens, UniProt P31751, S474D); test: […]-γ-ATP radiometric kinase assay with purified kinase and Crosstide peptide; format: biochemical
T1 construct: ΔPH-PKBβ-S474D

[2] = target: T2, AKT1/PKBα (Homo sapiens, UniProt P31749, S473D); test: as above; format: biochemical
T2 construct: ΔPH-PKBα-S473D
T2 sequence (P31749 118-480 S473D limits assumed): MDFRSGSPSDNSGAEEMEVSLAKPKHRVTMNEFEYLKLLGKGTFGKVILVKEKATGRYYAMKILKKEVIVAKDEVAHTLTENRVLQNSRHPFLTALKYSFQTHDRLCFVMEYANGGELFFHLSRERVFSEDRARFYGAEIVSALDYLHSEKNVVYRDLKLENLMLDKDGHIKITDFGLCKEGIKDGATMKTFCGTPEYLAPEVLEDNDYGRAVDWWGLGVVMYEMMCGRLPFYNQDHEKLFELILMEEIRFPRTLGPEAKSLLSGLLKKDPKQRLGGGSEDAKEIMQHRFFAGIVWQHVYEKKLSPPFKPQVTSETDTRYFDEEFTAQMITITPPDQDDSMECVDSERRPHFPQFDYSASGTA

T1 sequence (P31751 119-481 S474D limits assumed): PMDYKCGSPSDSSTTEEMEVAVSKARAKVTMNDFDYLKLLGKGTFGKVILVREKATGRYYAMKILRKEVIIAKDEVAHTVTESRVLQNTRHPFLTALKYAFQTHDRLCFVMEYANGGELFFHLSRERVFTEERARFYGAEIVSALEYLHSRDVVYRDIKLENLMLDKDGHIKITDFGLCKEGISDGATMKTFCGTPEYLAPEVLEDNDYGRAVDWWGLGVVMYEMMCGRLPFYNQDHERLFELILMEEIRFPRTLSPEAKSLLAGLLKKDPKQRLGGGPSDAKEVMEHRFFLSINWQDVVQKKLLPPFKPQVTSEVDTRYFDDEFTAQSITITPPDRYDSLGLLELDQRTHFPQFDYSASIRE

A pIC50 [1] of 4.92 and a pIC50 [2] of 4.85 were found for `Cc1nn(-c2ccc(Cl)cc2)c2c1C(c1ccc(-c3ccccc3)cc1)C(C#N)=C(N)O2` (centres unmarked) [4j, 6-Amino-4-(biphenyl-4-yl)-1-(4-chlorophenyl)-3-methyl-1,4-dihydropyrano[2,3-c]pyrazole-5-carbonitrile] in this work.
